Reference: patent US5459077A, “Methods for modelling tertiary structures of biologically active ligands and for modelling agonists and antagonists thereto” (PepMetics, Inc., priority 1993, dated 1995)
Bridge positions count the residues as written; N and C are the ends. Square brackets hold non-standard residues; d marks the D form. Peptide text beside a SMILES is read from it. Sar = CNCC(=O)O

Experiments:
rat isolated uterus = type: cell-based; conditions: for AGONIST ACTIVITY: relative to Angiotensin II = 100; for agonist / antagonist character in words: footnotes of Table I
Protocol: ^b = Agonist Activity was measured via a rat isolated uterus bioassay
as described by Matsoukas et al., J. Med. Chem., 31, pp. 1418-1421 (1988)
Results are reported relative to Angiotensin II wherein Angiotensin II =
Analogs of Angiotensin II were synthesized, purified and bioassayed by method described by Matsoukas et al., J. Med. Chem., 31, pp. 1418-1421 (1988). 1,2-propanediol [Pr(OH)2 ] was dried by refluxing over calcium oxide for 8 hours, collected by distillation and stored over a molecular sieve. Water content was estimated by ^1 H NMR or by the Karl Fisher method. Isopropanol (PrOH) was of HPLC grade (Caledon Laboratories Ltd) and was expected to contain less than 1% water. Dimethyl sulfoxide (DMSO) and trifluoroethanol (TFE) were used without further treatment. Aqueous solvents were prepared from distilled water which had been passed through Fisher ion-exchange cartridges. N-acetyl-tyrosine-amide (NAYA) was obtained from Sigma. Sodium dodecylsulfate (SDS) was obtained from BDH biochemicals (specially pure) and was used without further treatment.
[Sar^1 ]Angiotensin II was synthesized by the solid phase technique and purified to homogeneity by reversed-phase HPLC using methods described by Matsoukas et al., J. Med. Chem. 31(7), pp. 1418-1421 (1988). The synthetic peptide gave the required amino acid analysis and appeared as a single product in two thin layer chromatography (TLC) systems. [Sar^1 ]Angiotensin II had 180% of the bioactivity of Angiotensin II in the rat uterus assay which is also described by Matsoukas et al., supra. Since HPLC afforded the trifluoroacetate salt of the peptide, [Sar^1 ]Angiotensin II was neutralized by passage through a column (1.5×3 cm) of carboxymethylcellulose (Whatman CM23) cation exchange resin. The peptide (10 mg) was first applied to the column in 0.01M ammonium acetate at pH 5 (5 ml) and then eluted with 0.5M ammonium acetate at pH 8 (10 ml). The effluent obtained at pH 8 was lyophilized thrice and 5 mg of the product was dissolved in 0.5 ml of DMSO-d6 and two drops of D2 O were added. Argon was bubbled through the sample for 5 minutes before the NMR tube was sealed.

[1] = agonist activity of oxytocin analog (assay not described)

Row | Compound | AGONIST ACTIVITY (rat isolated uterus) | agonist / antagonist character in words (rat isolated uterus) | also measured
1 | CC[C@H](C)[C@H](NC(=O)[C@H](Cc1ccc(O)cc1)NC(=O)[C@@H](NC(=O)[C@H](CCCNC(=N)N)NC(=O)CNC)C(C)C)C(=O)N[C@@H](Cc1ccccc1)C(=O)N1CCC[C@H]1C(=O)N[C@@H](Cc1ccccc1)C(=O)O [C] (H-[Sar]RVYIFPF-OH) | 7 |  | 
2 | CC[C@H](C)[C@H](NC(=O)[C@H](Cc1ccc(O)cc1)NC(=O)[C@@H](NC(=O)[C@H](CCCNC(=N)N)NC(=O)CNC)C(C)C)C(=O)N[C@@H](Cc1c[nH]cn1)C(=O)N1CCC[C@H]1C(=O)N[C@@H](CC1CCCCC1)C(=O)O [D] | 4 | Potent receptor antagonist with residual agonist activity | 
3 | CC[C@H](C)[C@H](NC(=O)[C@H](Cc1ccc(O)cc1)NC(=O)[C@@H](NC(=O)[C@@H](N)CCCNC(=N)N)C(C)C)C(=O)N[C@@H](Cc1c[nH]cn1)C(=O)N1CCC[C@H]1C(=O)N[C@@H](CC1CCCCC1)C(=O)O [E] | 5 | Potent receptor antagonist with residual agonist activity | 
4 | CC[C@H](C)[C@H](NC(=O)[C@H](Cc1ccc(O)cc1)NC(=O)[C@@H](NC(=O)[C@H](CCCNC(=N)N)NC(=O)CNC)C(C)C)C(=O)N[C@@H](Cc1c[nH]cn1)C(=O)N1CCC[C@H]1C(=O)N[C@@H](Cc1ccccc1)C(N)=O [F] | 0.2 |  | 
5 | CC[C@H](C)[C@H](NC(=O)[C@H](Cc1ccc(O)cc1)NC(=O)[C@@H](NC(=O)[C@H](CCCNC(=N)N)NC(=O)CNC)C(C)C)C(=O)N[C@@H](C)C(=O)N1CCC[C@H]1C(=O)N[C@@H](Cc1ccccc1)C(=O)O [G] (H-[Sar]RVYIAPF-OH) | less than 0.1 |  | 
6 | CC[C@H](C)[C@H](NC(=O)[C@H](Cc1ccc(O)cc1)NC(=O)[C@@H](NC(=O)[C@H](CCCNC(=N)N)NC(=O)CNC)C(C)C)C(=O)N[C@@H](Cc1c[nH]cn1)C(=O)N1CCC[C@@H]1C(=O)N[C@@H](Cc1ccccc1)C(=O)O [I] | less than 0.1 |  | 
7 | CC[C@H](C)[C@H](NC(=O)[C@@H]1CCCN1C(=O)[C@H](Cc1c[nH]cn1)NC(=O)[C@@H](NC(=O)[C@H](Cc1ccc(O)cc1)NC(=O)[C@@H](NC(=O)[C@H](CCCNC(=N)N)NC(=O)CNC)C(C)C)[C@@H](C)CC)C(=O)O [J] | less than 0.1 | Potent receptor antagonist | 
8 | CC[C@H](C)[C@H](NC(=O)[C@H](Cc1ccc(O)cc1)NC(=O)[C@@H](NC(=O)[C@@H](N)CCCNC(=N)N)C(C)C)C(=O)N[C@@H](Cc1c[nH]cn1)C(=O)N1CCC[C@H]1C(=O)N[C@@H](Cc1ccccc1)C(=O)O [K] | 10 |  | 
9 | CC[C@H](C)[C@H](NC(=O)[C@H](Cc1ccc(O)cc1)NC(=O)[C@@H](NC(=O)[C@H](CCCNC(=N)N)NC(=O)CNC)C(C)C)C(=O)N[C@@H](Cc1c[nH]cn1)C(=O)N1CCC[C@H]1C(=O)N[C@@H](Cc1ccccc1)C(N)=O [Ligand F, [Sar^1 Phe--NH2^8]Angiotensin II] |  | lack of significant agonist activity | 
10 | CC[C@H](C)[C@H](NC(=O)[C@H](Cc1ccc(O)cc1)NC(=O)[C@@H](NC(=O)[C@H](CCCNC(=N)N)NC(=O)CNC)C(C)C)C(=O)N[C@@H](C)C(=O)N1CCC[C@H]1C(=O)N[C@@H](Cc1ccccc1)C(=O)O [Ligand G, [Sar^1 Ala^6]Angiotensin II] (H-[Sar]RVYIAPF-OH) |  | lack of significant agonist activity | 
11 | CC[C@H](C)[C@@H]1NC(=O)[C@H](Cc2ccc(O)cc2)NC(=O)[C@@H](N)CSSC[C@@H](C(=O)N2CCC[C@H]2C(=O)N[C@@H](CC(C)C)C(=O)NCC(N)=O)NC(=O)[C@H](C)NC(=O)[C@H](CCC(N)=O)NC1=O [[Ala^5]] (H-CYIQACPLG-NH2; disulfide 1-6) |  |  | agonist activity in words [1]: no agonist activity
12 | CC[C@H](C)[C@H](NC(=O)[C@H](Cc1ccc(O)cc1)NC(=O)[C@@H](NC(=O)[C@H](CCCNC(=N)N)NC(=O)CNC)C(C)C)C(=O)N[C@@H](Cc1c[nH]cn1)C(=O)N1CCC[C@H]1C(=O)N[C@@H](Cc1ccccc1)C(=O)O [[Sar^1]Angiotensin II, reference compound] |  |  | bioactivity relative to Angiotensin II (rat isolated uterus; rat uterus assay): 180%
13 | [Sar^1 Tyr(Me)^4 ]Angiotensin II [reference compound] | 100 |  | 
14 | [Tyr(Me)^4 ]Angiotensin III [B, reference compound] | 27 |  | 
